The values that follow come from ChEMBL document CHEMBL4673329, “Polyketides from the marine-derived fungus Aspergillus falconensis: In silico and in vitro cytotoxicity studies” (Bioorg Med Chem, 2021).

Activity calls are given as the source filed them. The rule behind the calls is not given here.

Common to all, as to format: functional, cell-based
Assay [1] has as its system MDA-MB-231. In words: Cytotoxicity against human MDA-MB-231 cells assessed as reduction in cell viability upto 100 uM incubated for 24 hrs by MTT assay. Conditions: dose microM <=100, time 24.0 hrs. (In general: Tetrazolium dyes change colour on reduction, which living cells bring about.)
The subject of assay [2] is MDA-MB-231. The experiment in a line: Inhibition of cell migration in human MDA-MB-231 at 70 uM incubated for 24 hrs by scratch wound healing assay.
For a further assay, the system named is L5178Y. The experiment in a line: Cytotoxicity against mouse L5178Y cells assessed as reduction in cell viability incubated for 24 hrs by MTT assay.

`COC(=O)c1cc(O)cc(OC)c1C(=O)c1c(O)cc(C)c(Cl)c1O`: the result in the assay on MDA-MB-231 [1] was inactive.

Take `COC(=O)c1cc(O)cc(OC)c1C(=O)c1c(O)cc(C)cc1O` [SULOCHRIN]: the inhibition entry in the assay on MDA-MB-231 [2] was “Active”. Moreover, the outcome with MDA-MB-231 [1] was inactive. For the same compound, the IC50 (as a rule, the point on the concentration scale where inhibition reaches its midpoint) in the assay on L5178Y is 5.1 µM.
